Test results taken from patent publication US20230242530A1, “8-(AZETIDIN-1-YL)-[1,2,4]TRIAZOLO[1,5-A]PYRIDINYL COMPOUNDS, COMPOSITIONS AND METHODS OF USE THEREOF” (Genentech, Inc., priority 2016, published 2023).

Experiments:
[1] = molecular target: T1, isolated recombinant JAK2 kinase domain (Homo sapiens, UniProt O60674); experiment: JAK enzyme assay, JAK2 kinase domain (Caliper LabChip); type: biochemical; settings: 0.2 nM JAK2, ATP 25 μM, Morrison tight binding model
T1 construct: isolated recombinant JAK1 and JAK2 kinase domain
T1 sequence (O60674 849-1124 limits assumed): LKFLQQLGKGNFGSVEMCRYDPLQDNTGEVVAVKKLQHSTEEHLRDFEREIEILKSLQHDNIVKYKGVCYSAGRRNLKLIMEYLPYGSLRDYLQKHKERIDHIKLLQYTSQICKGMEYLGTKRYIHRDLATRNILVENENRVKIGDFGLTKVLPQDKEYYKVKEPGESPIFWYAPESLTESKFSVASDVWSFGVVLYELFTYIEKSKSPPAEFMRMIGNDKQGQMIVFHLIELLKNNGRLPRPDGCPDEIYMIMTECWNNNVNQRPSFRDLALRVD
Description: (§1) JAK Enzyme Assays were Carried Out as Follows:
(§2) The activity of the isolated recombinant JAK1 and JAK2 kinase domain was measured by monitoring phosphorylation of a peptide derived from JAK3 (Val-Ala-Leu-Val-Asp-Gly-Tyr-Phe-Arg-Leu-Thr-Thr, fluorescently labeled on the N-terminus with 5-carboxyfluorescein) using the Caliper LabChip® technology (Caliper Life Sciences, Hopkinton, Mass.). […] Reactions were incubated at 22 °C in 384-well polypropylene microtiter plates for 30 minutes and then stopped by addition of 25 μL of an EDTA containing solution (100 mM HEPES buffer (pH 7.2), 0.015% Brij-35, 150 mM EDTA), resulting in a final EDTA concentration of 50 mM. After termination of the kinase reaction, the proportion of phosphorylated product was determined as a fraction of total peptide substrate using the Caliper LabChip® 3000 according to the manufacturer's specifications. Ki values were then determined using the Morrison tight binding model (Morrison, J. F., Biochim. Biophys. Acta. 185:269-296 (1969); William, J. W. and Morrison, J. F., Meth. Enzymol., 63:437-467 (1979)) modified for ATP-competitive inhibition [Ki=Ki,app/(1+[ATP]/Km,app)].

[2] = molecular target: T2, isolated recombinant JAK1 kinase domain (Homo sapiens, UniProt P23458); experiment: JAK enzyme assay, JAK1 kinase domain (Caliper LabChip); type: biochemical; settings: 1.5 nM JAK1, ATP 25 μM, Morrison tight binding model
T2 construct: isolated recombinant JAK1 and JAK2 kinase domain
T2 sequence (P23458 875-1153 limits assumed): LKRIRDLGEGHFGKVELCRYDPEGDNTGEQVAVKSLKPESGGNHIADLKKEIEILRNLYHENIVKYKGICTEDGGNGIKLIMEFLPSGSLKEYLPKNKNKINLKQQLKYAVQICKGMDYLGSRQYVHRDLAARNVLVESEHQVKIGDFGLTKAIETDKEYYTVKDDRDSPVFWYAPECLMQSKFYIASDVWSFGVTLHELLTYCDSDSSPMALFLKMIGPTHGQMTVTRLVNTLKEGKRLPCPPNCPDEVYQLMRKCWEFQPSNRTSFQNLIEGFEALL
Description: as §1, §2

[3] = tested on: JAK1-dependent STAT6 phosphorylation downstream of IL-13 stimulation in BEAS-2B cells; experiment: JAK1 pathway assay in cell lines: IL-13 p-STAT6 BEAS-2B; type: cell-based; settings: BEAS-2B human bronchial epithelial cells, 1 hr compound, IL-13 15 min, MSD readout
Description: JAK1 Pathway Assay in Cell Lines was Carried Out as Follows:
Inhibitor potency (EC50) was determined in cell-based assays designed to measure JAK1 dependent STAT phosphorylation. As noted above, inhibition of IL-4, IL-13, and IL-9 signalling by blocking the Jak/Stat signaling pathway can alleviate asthmatic symptoms in pre-clinical lung inflammation models (Mathew et al., 2001, J Exp Med 193(9): 1087-1096; Kudlacz et. al., 2008, Eur J. Pharmacol 582(1-3): 154-161).
In one assay approach, TF-1 human erythroleukemia cells obtained from the American Type Culture Collection (ATCC; Manassas, Va.) were used to measure JAK1-dependent STAT6 phosphorylation downstream of IL-13 stimulation. Prior to use in the assays, TF-1 cells were starved of GM-CSF overnight in OptiMEM medium (Life Technologies, Grand Island, N.Y.) supplemented with 0.5% charcoal/dextran stripped fetal bovine serum (FBS), 0.1 mM non-essential amino acids (NEAA), and 1 mM sodium pyruvate. The assays were run in 384-well plates in serum-free OptiMEM medium using 300,000 cells per well. In a second assay approach, BEAS-2B human bronchial epithelial cells obtained from ATCC were plated at 100,000 cells per well of a 96-well plate one day prior to the experiment. The BEAS-2B assay was run in complete growth medium (bronchial epithelial basal medium plus bulletkit; Lonza; Basel, Switzerland).
Test compounds were serially diluted 1:2 in DMSO and then diluted 1:50 in medium just before use. Diluted compounds were added to the cells, for a final DMSO concentration of 0.2%, and incubated for 30 mi (for the TF-1 assay) or 1 hr (for the BEAS-2B assay) at 37 QC. Then, cells were stimulated with human recombinant cytokine at their respective EC90 concentrations, as previously determined for each individual lot. Cells were stimulated with IL-13 (R&D Systems, Minneapolis, Minn.) for 15 min at 37 °C. The TF-1 cell reactions were stopped by the direct addition of 10× lysis buffer (Cell Signaling Technologies, Danvers, Mass.), whereas the BEAS-2B cell incubations were halted by the removal of medium and addition of 1× lysis buffer. The resultant samples were frozen in the plates at −80 °C. Compound mediated inhibition of STAT6 phosphorylation was measured in the cell lysates using MesoScale Discovery (MSD) technology (Gaithersburg, Md.). EC50 values were determined as the concentration of compound required for 50% inhibition of STAT phosphorylation relative to that measured for the DMSO control.

Ki [1] | Ki [2] | Structure (SMILES) | EC50 [3]
0.8 nM | 0.3 nM | N#CCC1(n2cc(C(F)(F)F)cn2)CN(c2cccn3nc(Nc4cnn(CC(=O)N5CCC(N6CCOCC6)CC5)c4)nc23)C1 [Example 96, 2-[1-[2-[[1-[2-(4-morpholino-1-piperidyl)-2-oxo-ethyl]pyrazol-4-yl]amino]-[1,2,4]triazolo[1,5-a]pyridin-8-yl]-3-[4-(trifluoromethyl)pyrazol-1-yl]azetidin-3-yl]acetonitrile] | 28 nM
1.3 nM | 0.3 nM | Cc1ccccc1-c1cnn(C2(CC#N)CN(c3cccn4nc(Nc5cnn(CC(=O)N6CCC(N7CCOCC7)CC6)c5)nc34)C2)c1 [Example 123] | 87 nM
1.5 nM | 0.4 nM | Cc1cnn(C2(CC#N)CN(c3cccn4nc(Nc5cnn(CC(=O)N6CCN(C)CC6)c5)nc34)C2)c1 [Example 10] | 18 nM
0.5 nM | 0.3 nM | Cn1cc(Nc2nc3c(N4CC(CC#N)(n5cc(Br)cn5)C4)cccn3n2)cn1 [Example 132, 2-[3-(4-bromopyrazol-1-yl)-1-[2-[(l-methylpyrazol-4-yl)amino]-[1,2,4]triazolo[1,5-a]pyridin-8-yl]azetidin-3-yl]acetonitrile] | 51 nM
18.8 nM | 6.4 nM | CN1CCN(C(=O)Cn2cc(Nc3nc4c(N5CC(CC#N)(n6cc(I)cn6)C5)cccn4n3)cn2)CC1 [Example 89, 2-[3-(4-iodopyrazol-1-yl)-1-[2-[[1-[2-(4-methylpiperazin-1-yl)-2-oxo-ethyl]pyrazol-4-yl]amino]-[1,2,4]triazolo[1,5-a]pyridin-8-yl]azetidin-3-yl]acetonitrile] | 
0.3 nM | 0.3 nM | Cc1nn(C2(CC#N)CN(c3cccn4nc(Nc5cnn(CC(=O)N6CCN(C)CC6)c5)nc34)C2)cc1-c1ccccc1 [Example 114, formic acid;2-[3-(3-methyl-4-phenyl-pyrazol-1-yl)-1-[2-[[1-[2-(4-methylpiperazin-1-yl)-2-oxo-ethyl]pyrazol-4-yl]amino]-[1,2,4]triazolo[1,5-a]pyridin-8-yl]azetidin-3-yl]acetonitrile] | 16 nM
1.8 nM | 0.5 nM | Cc1cc(C2(CC#N)CN(c3cccn4nc(Nc5cnn(CC(=O)N6CCN(C)CC6)c5)nc34)C2)ccc1Cl [Example 27, 2-[3-(4-chloro-3-methyl-phenyl)-1-[2-[[1-[2-(4-methylpiperazin-1-yl)-2-oxo-ethyl]pyrazol-4-yl]amino]-[1,2,4]triazolo[1,5-a]pyridin-8-yl]azetidin-3-yl]acetonitrile] | 51 nM
0.6 nM | 0.3 nM | N#CCC1(n2cc(CCF)cn2)CN(c2cccn3nc(Nc4cn[nH]c4)nc23)C1 [Example 149, 2-[3-[4-(2-fluoroethyl)pyrazol-1-yl]-1-[2-(1H-pyrazol-4-ylamino)-[1,2,4]triazolo[1,5-a]pyridin-8-yl]azetidin-3-yl]acetonitrile] | 21 nM
0.7 nM | 0.2 nM | CN1CCN(C(=O)Cn2cc(Nc3nc4c(N5CC(CC#N)(n6cc(C#N)cn6)C5)cccn4n3)cn2)CC1 [Example 87, 1-[3-(cyanomethyl)-1-[2-[[1-[2-(4-methylpiperazin-1-yl)-2-oxo-ethyl]pyrazol-4-yl]amino]-[1,2,4]triazolo[1,5-a]pyridin-8-yl]azetidin-3-yl]pyrazole-4-carbonitrile] | 17 nM
0.2 nM | 0.1 nM | N#CCC1(n2cc(C3CC3)cn2)CN(c2cccn3nc(Nc4cn[nH]c4)nc23)C1 [Example 140, 2-[3-(4-cyclopropylpyrazol-1-yl)-1-[2-(1H-pyrazol-4-ylamino)-[1,2,4]triazolo[1,5-a]pyridin-8-yl]azetidin-3-yl]acetonitrile] | 11 nM
1.3 nM | 0.3 nM | CCc1cnn(C2(CC#N)CN(c3cccn4nc(Nc5ccc6c(c5)CCN(C5CCOCC5)C6)nc34)C2)c1 [Example 57, 2-[3-(4-ethylpyrazol-1-yl)-1-[2-[(2-tetrahydropyran-4-yl-3,4-dihydro-1H-isoquinolin-6-yl)amino]-[1,2,4]triazolo[1,5-a]pyridin-8-yl]azetidin-3-yl]acetonitrile] | 12 nM
4.5 nM | 1.8 nM | CSc1ccc(C2(CC#N)CN(c3cccn4nc(Nc5cnn(CC(=O)N6CCN(C)CC6)c5)nc34)C2)cc1 [Example 14] | 72 nM
5.3 nM | 1.6 nM | CN1CCN(C(=O)Cn2cc(Nc3nc4c(N5CC(CC#N)(N6CCC(C#N)CC6)C5)cccn4n3)cn2)CC1 [Example 13, 1-[3-(cyanomethyl)-1-[2-[[1-[2-(4-methylpiperazin-1-yl)-2-oxo-ethyl]pyrazol-4-yl]amino]-[1,2,4]triazolo[1,5-a]pyridin-8-yl]azetidin-3-yl]piperidine-4-carbonitrile] | 82 nM
0.2 nM | 0.4 nM | CSc1cccc(C2(CC#N)CN(c3cccn4nc(Nc5cnn(CC(=O)N6CCC(N7CCOCC7)CC6)c5)nc34)C2)c1 [Example 90, 2-[3-(3-methylsulfanylphenyl)-1-[2-[[1-[2-(4-morpholino-1-piperidyl)-2-oxo-ethyl]pyrazol-4-yl]amino]-[1,2,4]triazolo[1,5-a]pyridin-8-yl]azetidin-3-yl]acetonitrile] | 22 nM
15.7 nM | 9.5 nM | CN1CCN(C(=O)Cn2cc(Nc3nc4c(N5CC(CC#N)(n6cc(Br)cn6)C5)cccn4n3)cn2)CC1 [Example 6, 2-[3-(4-bromo-1H-pyrazol-1-yl)-1-[2-([1-[2-(4-methylpiperazin-1-yl)-2-oxoethyl]-1H-pyrazol-4-yl]amino)-[1,2,4]triazolo[1,5-a]pyridin-8-yl]azetidin-3-yl]acetonitrile] | 
15.5 nM | 9 nM | CCc1cnn(C2(CC#N)CN(c3nccn4nc(Nc5cn[nH]c5)nc34)C2)c1 [Example 153, 2-(1-(2-((1H-pyrazol-4-yl)amino)-[1,2,4]triazolo[1,5-a]pyrazin-8-yl)-3-(4-ethyl-1H-pyrazol-1-yl)azetidin-3-yl)acetonitrile] | 
64 nM | 40.2 nM | CCc1cnn(C2(CC#N)CN(c3cccn4nc(Nc5cnn(CCCO)c5)nc34)C2)c1 [Example 3, 2-[3-(4-ethyl-1H-pyrazol-1-yl)-1-(2-[[1-(3-hydroxypropyl)-1H-pyrazol-4-yl]amino]-[1,2,4]triazolo[1,5-a]pyridin-8-yl)azetidin-3-yl]acetonitrile] | 
50.4 nM | 37.2 nM | CN1CCN(C(=O)Cn2cc(Nc3nc4c(N5CC(CC#N)(c6ccc(Cl)cc6)C5)cccn4n3)cn2)CC1 [Example 7, 2-[3-(4-chlorophenyl)-1-[2-[[1-[2-(4-methylpiperazin-1-yl)-2-oxo-ethyl]pyrazol-4-yl]amino]-[1,2,4]triazolo[1,5-a]pyridin-8-yl]azetidin-3-yl]acetonitrile] | 
32.8 nM | 17.5 nM | CCc1cnn(C2(CC#N)CN(c3cccn4nc(Nc5cn[nH]c5)nc34)C2)c1 [Example 2, 2-[3-(4-ethyl-1H-pyrazol-1-yl)-1-[2-[(1H-pyrazol-4-yl)amino]-[1,2,4]triazolo[1,5-a]pyridin-8-yl]azetidin-3-yl]acetonitrile] | 
